Earlier results, collected in patent US20260041710A1, “A NOVEL COMBINATION FOR ITS UTILITY IN MICRO AND MACRO VASCULAR COMPLICATIONS” (priority 2022, published 2026).
Where two headings read alike, the source gives them in different places.

What was measured:
[1] = test system: 54 Irish patients of diabetic retinopathy; conditions: single injection

## Bevacizumab: full-length antibody that inhibits all isoforms of the VEGF-A family
[1]
  patients with greater than 50 microns reduction of macular thickness: 9.2%
  patients with greater than 100 microns reduction of macular thickness: 20.3%
  patients with less than 50 microns reduction in macular thickness: 40.7%
  patients without any improvement: 29.6%
[1]; of 54 patients
  patients with greater than 50 microns reduction of macular thickness: 5 patients
  patients with less than 50 microns reduction in macular thickness: 22 patients
  patients without any improvement: 16 patients
1 month after intravitreal injection, P<0.001
  BCVA: 0.76
Before intravitreal injection
  BCVA: 0.90
